Data as given in US9775844B2, “Heterocyclic compounds and uses thereof” (Infinity Pharmaceuticals, Inc., priority 2014, dated 2017).

Legend:
4T1 breast cancer = test: Subcutaneous 4T1 breast cancer model; type: in vivo
human T cells = test: Concanavalin A-induced model for activation of human T cells (IFN-γ); type: cell-based; conditions: at isoform selective concentrations
[1] = system: bone marrow cells differentiating into MDSCs; test: Myeloid Derived Suppressor Cell differentiation assay; type: cell-based; conditions: FIG. 24A/24B
Description: A similar experiment was performed on bone marrow cells differentiating into MDSCs.

CT26 colon cancer = CT26 colon cancer model; type: in vivo, mouse
TMD8 cell line = test: Combination isobologram in TMD8 cell line; type: cell-based; conditions: combination of Compound AA and Compound BB
[2] = system: suppression of spleen T cell proliferation by CT26 tumor cells; test: Ex vivo T cell proliferation assay with CT26 tumor cells (CFSE); type: cell-based, mouse; conditions: tumors from treated mice
Description: The duration of the study was 1 week under treatment. 5-6 week old female, Balb/c mice (Jackson Labs) implanted subcutaneously with 5×10^5 CT26 cells in 100 μl PBS. CT26 cells were cultured in RPMI supplemented with 10% FBS. Dosing commenced when tumors reached an average volume of 500-600 mm^3
For group 3 (αPD-L1), the mice were dosed once, IP, 200 ug (200 uL from 1 mg/ml stock).
Mice were monitored daily for adverse clinical effects. Body weights and tumor luminescent were measured two times per week. At the end of the study, tumors were harvested and cut into 3 parts; one piece for CTL killing assay, one piece for CSFE proliferation assay and one piece (split into two) for OCT/FFPE.
Spleens from 3 vehicle treated tumor bearing mice were physically dissociated in T cell media and passed through a 70 micron filter. After red cell lysis, the cells were pooled, brought up in PBS and stained with CFSE (invitrogen). After washing, these cells were brought up in 20 ml T cell media. Half the cells received Dynal mouse activator beads (CD3/CD28 crosslinking at a 1:1 […]). CD3/CD28 beads induce proliferation in splenocytes from tumor bearing mouse (data not shown).
The cells were treated with red cell lysis buffer, washed, and re-suspended in 10 ml T cell media. 2 mls of the each tumor cell suspension were plated into each of two 12 well plates. […]

pKa = type: physicochemical
Description: The phyiscochemical properties of Compound BB are drug-like, and suitable for use of the compound as a drug.

Cyp = Cyp Induction (activity and mRNA); type: in vitro ADME
LLC tumor brei = LLC tumor brei model with or without cyclophosphamide (tumor growth, FACS); type: in vivo, mouse
Description: In this experiment, treatment began when tumors reached approx. 150 mm^3—around day 12. Caliper and xenogen images were monitored. Treatment groups n=13-15/group. […] Samples for FACs analysis were collected on day 23 post implant. Using FACS, cells were assayed for the level of CD11b and Gr-1.

[3] = system: IL-8 induced neutrophil migration; test: IL-8 driven murine air pouch model; conditions: mouse air pouch; BB 0.1-3 mg/kg, AA 10-50 mg/kg
[4] = Dose-exposure proportionality; conditions: in vivo
[5] = Pharmacokinetics in monkey, oral; type: in vivo; conditions: 5 mg/kg oral
Description: Compound BB's oral exposure is high in rat, dog and monkey. Good oral bioavailability and low clearance in rodent and non-rodent animal species results in high oral exposure.

GL261-Luc = GL261-Luc murine glioblastoma subcutaneous model; type: in vivo, mouse; conditions: 15 mg/kg QD, PO
[6] = system: tumor-associated myeloid cells in LLC tumor brei; test: Flow cytometry of tumor-associated myeloid cells, LLC tumor brei model; type: in vivo, mouse
Description: (§1) Flow cytometry was performed to obtain a more extensive cellular subset analysis. In particular, the study examined T cell vs. Myeloid cells, Myeloid cell subsets, Regulatory vs. effector T cells, and Tumor markers vs. WBC (e.g., PD-L1 expression on tumor).
(§2) Different populations of tumor-associated myeloid cells can be identified by flow cytometry, e.g., monocytic immature myeloid cells (iMC),Granulocytic iMCs/Neutrophils, Tumor Associated Macrophages (TAMs), and Granulocytic MDSCs. The different populations, and panels for detecting MDSCs, are described in Cancer Discovery 2011; 1:54-67. Tumors may vary in their myeloid cell composition.

[7] = Oral exposure in the monkey; type: in vivo
[8] = system: KPC Pancreatic Cancer cells; test: RNA expression profiling (TLDA) of KPC pancreatic cancer tumors; type: in vivo, mouse
Description: RNA expression profiling was performed for immuno-phenotyping with a Taqman low density array (TLDA).
For mouse tumors, snap frozen samples were powdered with a Genogrinder at liquid nitrogen temperatures and RNA was isolated with Trizol. Next, the sample was cleaned-up using Qiashredder, and then using a RNeasy kit.
CT values were used for analysis. For each sample Si and each gene, the following values were calculated: dCT(Si,gene)=CT(Si,gene)−CT(Si,ACTB) ddCT(Si,gene)=dCT(Si,gene)−median(dCT(vehicle treated samples, gene)) RQ(Si, gene)=2^(−ddCT(Si,gene))
This produced a matrix of RQ values: 48 genes (rows)×39 samples (cols).
The analysis used R package Non-negative Matrix Factorization (NMF) with rank=3 and the “lee” algorithm.

human hepatocytes = test: Human hep viability; type: cell-based; conditions: Hepatocyte
phospho-AKT in T cells = test: Ex vivo whole blood stimulation of phospho-AKT in T cells of LLC-bearing mice; conditions: LLC-bearing mice treated with compound
tumor = test: Tumor growth, Compound BB alone and co-administered with 5-FU (FIG. 35); type: in vivo
[9] = system: spleen T cell proliferation; test: Ex vivo T-cell proliferation assay with tumor-derived cells from treated mice; type: in vivo
[10] = system: monocytic iMCs in CT26 subcutaneous tumors; test: Flow cytometry of tumor-associated myeloid cells, CT26 subcutaneous tumors; type: in vivo, mouse; conditions: FIG. 38B
Description: as §1, §2

Oral exposure in the rat = type: in vivo

C[C@H](NC(=O)c1c(N)nn2cccnc12)c1cc2cccc(C#Cc3cnn(C)c3)c2c(=O)n1-c1ccccc1 [Compound BB]
single agent activity (4T1 breast cancer): demonstrated single agent activity | tumor growth (4T1 breast cancer; co-administration with docetaxel, paclitaxel, or 5-FU): achieved a further reduction in tumor growth | effect on IFN-γ (human T cells): little to no effect | VEGF and ARG1 in MDSC differentiation assay [1]: suppressed | MDSC expansion after cyclophosphamide treatment (CT26 colon cancer; CT26 colon cancer model): decreased | monocytic iMCs (CT26 colon cancer; CT26 subcutaneous tumors): decreased | combination effect (isobologram) (TMD8 cell line): synergistic effect | suppression of T cell proliferation by cells derived from CT26 mouse tumors [2]: can release the suppression | pKa (pKa): no ionization from pH 3-10 | Cyp Induction @ 10 uM (Cyp): Neg (activity and mRNA) | tumor growth, LLC tumor brei model (LLC tumor brei; Compound BB 15 mg/kg QD PO, cyclophosphamide 50 mg/kg EOD IP): reduced tumor growth | CD206 population in LLC tumors (FACS) (LLC tumor brei; Compound BB PO QD alone or with cyclophosphamide): decrease in the CD206 population | IL-8 induced neutrophil migration [3]: blocks IL-8 induced neutrophil migration | dose-exposure proportionality [4]: exhibits dose-exposure proportionality | oral exposure (plasma concentrations within 24 hours) [5]: high | total flux, GL-261 syngeneic glioma model (GL261-Luc): reduced the total flux | tumor volume, GL-261 syngeneic glioma model (GL261-Luc): reduced tumor volume | number of infiltrating TAMs ([6]; FIG. 38A): decreased | CD206 staining (M2 polarized suppressive macrophages) ([6]; FIG. 39): reduced | oral exposure [7]: high | M2 macrophage markers VEGF and ARG-1 (RNA) ([8]; 3 mg/kg, with or without PDL-1 antibody): trended towards reduction | T regulatory and T effector genes (RNA) ([8]; alone): trend in lower T regulatory and T effector genes | IC50 (human hepatocytes): 10 to 25 µM | ex vivo whole blood stimulation of phospho-AKT in T cells (phospho-AKT in T cells): inhibits | tumor growth (tumor; Compound BB alone): achieves a reduction in tumor growth | tumor growth (tumor; co-administration of Compound BB and 5-FU): achieves a further reduction | inhibition of spleen T cell proliferation by cells isolated from tumors of treated mice ([9]; compared to tumor derived cells from vehicle treated mice): less inhibitory of spleen T cell proliferation | immune suppressive environment ([9]; ex vivo T-cell proliferation assay): reduces immune suppressive environment | monocytic iMCs [10]: decreased | oral exposure (Oral exposure in the rat): high
